Measured values reported in patent US10988459B2 (priority 2015, dated 2021).

molecular target: human RIP1 kinase domain (2-375) (Homo sapiens (Human), UniProt Q13546); assay: biochemical; type: biochemical; conditions: Table 3; apparent Ki (Morrison tight-binding fit); 50 nM RIP1 kinase domain, 50 uM ATP, 2 hours incubation; read-out: Ki
Method in brief: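 50 nM purified kinase domain from baculovirus-infected insect cells, incubated 2 h with compound in 50 mM Hepes pH 7.5, 30 mM MgCl2, 1 mM DTT, 50 uM ATP, 0.002% Brij-35, 0.5% DMSO. ADP formation read by Transcreener FP at 633 nm excitation. Ki^app fitted with the Morrison tight-binding equation.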

Sequence of human RIP1 kinase domain (2-375) (Q13546 2-375): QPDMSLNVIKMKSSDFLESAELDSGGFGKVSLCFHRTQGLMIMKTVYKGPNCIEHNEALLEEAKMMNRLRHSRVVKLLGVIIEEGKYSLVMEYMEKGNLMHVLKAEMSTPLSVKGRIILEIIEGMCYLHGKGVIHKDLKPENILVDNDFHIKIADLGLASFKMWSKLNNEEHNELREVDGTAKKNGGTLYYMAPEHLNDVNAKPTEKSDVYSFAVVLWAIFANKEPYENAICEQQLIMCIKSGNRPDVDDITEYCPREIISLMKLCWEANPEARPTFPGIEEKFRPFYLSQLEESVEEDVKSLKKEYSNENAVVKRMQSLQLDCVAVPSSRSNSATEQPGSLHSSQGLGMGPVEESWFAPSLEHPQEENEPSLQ

| Ki | SMILES |
| --- | --- |
| 536 nM | Cc1cc2n(n1)CC[C@H](NC(=O)c1ncn3ccc(C(F)(F)F)cc13)C(=O)N2C (stereo in doubt) [Example 337, N-(2,4-dimethyl-5-oxo-5,6,7,8-tetrahydro-4H-pyrazolo[1,5-a][1,3]diazepin-6-yl)-7-(trifluoromethyl)imidazo[1,5-a]pyridine-1-carboxamide] |

same assay, conditions: Table 5; apparent Ki (Morrison tight-binding fit); 50 nM RIP1 kinase domain, 50 uM ATP, 2 hours incubation; read-out: Ki

| Ki | SMILES |
| --- | --- |
| 159 nM | CN1C(=O)[C@@H](NC(=O)c2ncn(Cc3ccccc3)n2)CCn2nc(CCN3CC4CC3CO4)cc21 (stereo partly drawn) [Example 761, 1-benzyl-N-[(6S)-4-methyl-2-[2-(2-oxa-5-azabicyclo[2.2.1]heptan-5-yl)ethyl]-5-oxo-7,8-dihydro-6H-pyrazolo[1,5-a][1,3]diazepin-6-yl]-1,2,4-triazole-3-carboxamide] |

same assay, conditions: human RIP1 kinase domain (2-375), 50 uM ATP, 2 hours incubation, Transcreener ADP assay; read-out: RIP1 Ki

| Ki | SMILES |
| --- | --- |
| 24.5 nM | Cc1cc2n(n1)CC[C@H](NC(=O)c1ncn(Cc3ccc(F)cc3)n1)C(=O)N2C [Example 164, (S)-N-(2,4-dimethyl-5-oxo-5,6,7,8-tetrahydro-4H-pyrazolo[1,5-a][1,3]diazepin-6-yl)-1-(4-fluorobenzyl)-1H-1,2,4-triazole-3-carboxamide] |
| 40 nM | CN1C(=O)[C@@H](NC(=O)c2ncn(Cc3ccccc3)n2)CCn2nc([C@H]3CC3(F)F)cc21 [Example 148, 1-benzyl-N-((S)-2-((R)-2,2-difluorocyclopropyl)-4-methyl-5-oxo-5,6,7,8-tetrahydro-4H-pyrazolo[1,5-a][1,3]diazepin-6-yl)-1H-1,2,4-triazole-3-carboxamide] |
| 891 nM | CN1C(=O)[C@@H](NC(=O)c2nc3n(n2)[C@@H](c2ccccc2)CC3)CCn2nccc21 (single isomer, unassigned) [Example 125] |
| 78.6 nM | CN1C(=O)C(NC(=O)c2nnc(Cc3ccccc3)[nH]2)CCn2nc3c(c21)CSC3 (stereo not drawn) [Example 145, 5-benzyl-N-(1-methyl-2-oxo-1,2,3,4,5,10-hexahydro-8H-thieno[3′,4′:3,4]pyrazolo[1,5-a][1,3]diazepin-3-yl)-4H-1,2,4-triazole-3-carboxamide] |
| 834 nM | CN1C(=O)[C@@H](NC(=O)c2cc3c(cn2)COC3(C)CC(F)(F)F)CCn2nccc21 (stereo partly drawn) [Example 106, 1-methyl-N—((S)-4-methyl-5-oxo-5,6,7,8-tetrahydro-4H-pyrazolo[1,5-a][1,3]diazepin-6-yl)-1-(2,2,2-trifluoroethyl)-1,3-dihydrofuro[3,4-c]pyridine-6-carboxamide] |

same assay, conditions: human RIP1 kinase domain (2-375), Transcreener ADP assay, 50 uM ATP, 2 hours incubation; read-out: RIP1 Ki

| Ki | SMILES |
| --- | --- |
| 1300 nM | Cc1cc2n(n1)CC[C@H](NC(=O)c1cc3c(cn1)COC3(C)CC(F)(F)F)C(=O)N2C (stereo partly drawn) [Example 266, N—((S)-2,4-dimethyl-5-oxo-5,6,7,8-tetrahydro-4H-pyrazolo[1,5-a][1,3]diazepin-6-yl)-1-m ethyl-1-(2,2,2-trifluoroethyl)-1,3-dihydrofuro[3,4-c]pyridine-6-carboxamide] |
| 136 nM | Cc1cc2n(n1)CCC(NC(=O)c1ncn(CC3CCCC3)n1)C(=O)N2C (stereo not drawn) [Example 251, 1-(cyclopentylmethyl)-N-(2,4-dimethyl-5-oxo-5,6,7,8-tetrahydro-4H-pyrazolo[1,5-a][1,3]diazepin-6-yl)-1H-1,2,4-triazole-3-carboxamide] |
| 88.5 nM | Cc1cc2n(n1)CC[C@H](NC(=O)c1ncn(C(C)c3ccc(F)cc3)n1)C(=O)N2C (stereo partly drawn) [Example 270, N—((S)-2,4-dimethyl-5-oxo-5,6,7,8-tetrahydro-4H-pyrazolo[1,5-a][1,3]diazepin-6-yl)-1-(1-(4-fluorophenyl)ethyl)-1H-1,2,4-triazole-3-carboxamide] |
| 2560 nM | CN1C(=O)[C@H](NC(=O)c2ncn(Cc3ccc(F)cc3F)n2)CCn2nc(C3CC3)cc21 [Example 298, (R)—N-(2-cyclopropyl-4-methyl-5-oxo-5,6,7,8-tetrahydro-4H-pyrazolo[1,5-a][1,3]diazepin-6-yl)-1-(2,4-difluorobenzyl)-1H-1,2,4-triazole-3-carboxamide] |

same assay, conditions: tight-binding apparent inhibition constant; human RIP1 kinase domain (2-375) 50 nM, 50 uM ATP, 2 hours; read-out: Ki

| Ki | SMILES |
| --- | --- |
| 360 nM | Cc1cc(F)c2c(c1)OC[C@H](NC(=O)c1nc3n(n1)CCO[C@@H]3c1ccccc1)C(=O)N2 [Example 643, (8R)-8-phenyl-N-[(3S)-6-fluoro-8-methyl-4-oxo-3,5-dihydro-2H-1,5-benzoxazepin-3-yl]-6,8-dihydro-5H-[1,2,4]triazolo[5,1-c][1,4]oxazine-2-carboxamide] |
| 565 nM | CN1C(=O)[C@@H](NC(=O)c2nc3n(n2)[C@@H](C2CCOCC2)CCC3)COc2ccccc21 (racemic) [Example 409, (R)—N—((S)-5-methyl-4-oxo-2,3,4,5-tetrahydrobenzo[b][1,4]oxazepin-3-yl)-5-(tetrahydro-2H-pyran-4-yl)-5,6,7,8-tetrahydro-[1,2,4]triazolo[1,5-a]pyridine-2-carboxamide] |
| 13.7 nM | CN1C(=O)[C@@H](NC(=O)c2nc3n(n2)[C@H](C(F)(F)F)CCC3)COc2ccccc21 (racemic) [Example 426, (S)—N—((S)-5-methyl-4-oxo-2,3,4,5-tetrahydrobenzo[b][1,4]oxazepin-3-yl)-5-(trifluoromethyl)-5,6,7,8-tetrahydro-[1,2,4]triazolo[1,5-a]pyridine-2-carboxamide] |
| 21.6 nM | CN1C(=O)[C@@H](NC(=O)c2ncn(Cc3ccccc3)n2)CCn2nc([C@H]3CC3(F)F)cc21 (stereo in doubt) [Example 679, 1-benzyl-N-[rac-(6S)-4-methyl-5-oxo-2-[rac-(1R)-2,2-difluorocyclopropyl]-7,8-dihydro-6H-pyrazolo[1,5-a] [1,3diazepin-6-yl]-1,2,4-triazole-3-carboxamide] |
| 38 nM | O=C(N[C@H]1CCc2cc(F)cc(F)c2NC1=O)c1nc2n(n1)CCO[C@H]2c1ccccc1 [Example 638, (8S)-8-phenyl-N-[(3S)-7,9-difluoro-2-oxo-1,3,4,5-tetrahydro-1-benzazepin-3-yl]-6,8-dihydro-5H-[1,2,4]triazolo[5,1-c][1,4]oxazine-2-carboxamide] |
| 14 nM | CCc1cc2n(n1)CC[C@H](NC(=O)c1ncn(Cc3ccccc3F)n1)C(=O)N2C [Example 464, (S)—N-(2-ethyl-4-methyl-5-oxo-5,6,7,8-tetrahydro-4H-pyrazolo[1,5-a][1,3]diazepin-6-yl)-1-(2-fluorobenzyl)-1H-1,2,4-triazole-3-carboxamide] |
| 370 nM | CN1C(=O)[C@@H](NC(=O)c2ncn(Cc3ccccc3C#N)n2)CCn2nccc21 [Example 603, 1-[(2-cyanophenyl)methyl]-N-(6S)-4-methyl-5-oxo-7,8-dihydro-6H-pyrazolo[1,5-a][1,3]diazepin-6-yl-1,2,4-triazole-3-carboxamide] |
| 62 nM | Cc1cn2c(n1)N(C)C(=O)[C@H](NC(=O)c1ncn(Cc3c(F)cccc3F)n1)CC2 [Example 660, 1-[(2,6-difluorophenyl)methyl]-N-(7R)-2,9-dimethyl-8-oxo-6,7-dihydro-5H-imidazo[1,2-a][1,3]diazepin-7-yl-1,2,4-triazole-3-carboxamide] |
| 46.1 nM | O=C(N[C@H]1CCc2cc(F)cc(F)c2NC1=O)c1nc2n(n1)[C@H](C(F)(F)F)CC2 [Example 357, (5S)—N-[(3S)-7,9-difluoro-2-oxo-1,3,4,5-tetrahydro-1-benzazepin-3-yl]-5-(trifluoromethyl)-6,7-dihydro-5H-pyrrolo[1,2-b][1,2,4]triazole-2-carboxamide] |
| 220 nM | Cc1cnc2n1CCC(NC(=O)c1ncn(Cc3ccccc3)n1)C(=O)N2C (stereo not drawn) [Example 546, 1-benzyl-N-(3,9-dimethyl-8-oxo-6,7-dihydro-5H-imidazo[1,2-a][1,3]diazepin-7-yl)-1,2,4-triazole-3-carboxamide] |
